# According to paper PMC6394990, “Detailed characterization of the solution kinetics and thermodynamics of biotin, biocytin and HABA binding to avidin and streptavidin” (PLoS ONE, 2019):
# Values joined by “and” are separate entries in the source; they are usually repeats but may differ in a detail not shown here. Equal entries are not always repeated.
# Target: T1, streptavidin (SAV) (Streptomyces avidinii, UniProt P22629)
# T1 construct: purchased Sigma Aldrich (St. Louis, MO)
# Test: Stopped-flow association kinetics of dye-labeled biotin probes binding to streptavidin (F(t), rF(t); Arrhenius plots/global fitting)
# Procedure: These reactions were carried out in a buffered solution of 10 mM Tris-HCl, 100 mM KCl, 2.5 mM MgCl2 and 1 mM CaCl2 at pH 8 and only AV-BcO reactions included pH 9 and 10. […] The deglycosylation of AV (for comparative association reactions) was carried out using the provided standard protocol with endoglycosidase H [47], both with and without incubation of a denaturant solution (2% SDS and 1M 2-mercaptoethanol).
# The reactions were collected with the SF instrument, described previously. […] The AC(t) and DC(t) data were baseline corrected before obtaining the signal ratio (Eq 4) as a function of time (ρt).
# The constant AGain is the instrumental amplitude gain and was evaluated by solving ρ(t) using the known steady state anisotropy (rss) of the complexes which is equivalent to the r(t) at t = ∞; and H, obtained from the equivalent grating factor (G) for the filters and photo multiplier tubes in the SF. For the probes used in here G was 0.82 and H = (1-G)/(1+G) = 0.099. Knowing Again and H, the AC(t) and DC(t) signals can be solved for r(t) and F(t) (Eqs 4 and 5) and the normalized fluorescence, F¯(t) , and corrected fluorescence anisotropy, rF¯(t), were obtained when F¯(0) and rF¯(0) were scaled to 1 at t = 0.
# The F¯(t) (Eq 6) is equivalent to (I||) + 2 (I⊥) and proportional to quantum yield (QYi), molar absorptivity (εi) and to the formation or disappearance of the emitting species Xi(t); and rF¯(t) including the steady state anisotropies (rss) of each fluorescent species (Eq 7).
# The possible reaction models were discriminated by the squared residuals of the observed and calculated association traces of both fluorescence and anisotropy fluorescence signals, F¯(t) and rF¯(t) , respectively.
# [1] = SAV, average over the dye-labeled B7 probes, used for SAV-B7
# [2] = SAV, average over the dye-labeled B7 probes, used for SAV-B7, listed as B
# T1 sequence (P22629 25-183): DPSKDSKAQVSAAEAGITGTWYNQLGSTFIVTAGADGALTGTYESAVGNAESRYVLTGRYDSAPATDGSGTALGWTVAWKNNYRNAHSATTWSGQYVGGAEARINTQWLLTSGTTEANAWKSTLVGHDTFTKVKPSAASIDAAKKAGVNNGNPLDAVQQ
structure (smiles),measurement,setting,value
"O=C(O)CCCC[C@@H]1SC[C@@H]2NC(=O)N[C@@H]21 [B7, d-biotin]",Eaon + (-∆H°),SAV-B,30.9 ± 2.5 kcal/mol
same,∆G°ǂ + (-∆G°),SAV-B,22.2 ± 1.0 kcal/mol
same,∆S°ǂ + (-∆S°),SAV-B,27.7 ± 2.0 cal/mol°K
same,ΔE = Ea^Forward-Ea^Backward,"SAV-B7, column 3 minus 4",-23.4 ± 4.0 kcal/mol
same,"ΔG° ^ǂ, Forward -ΔG° ^ǂ, Backward","SAV-B7, column 3 minus 4",-19.6 ± 2.5 kcal/mol
same,"ΔS° ^ǂ, Forward -ΔS° ^ǂ, Backward","SAV-B7, column 3 minus 4",-18.1 ± 4.5 cal/mol°K
same,fold slower than 10^9 M^-1s^-1 (diffusion limited),"SAV, 25°C",13-400 X
same,"ΔG^ǂ, Forward",[1],4.0 ± 0.6 kcal/mol and 4.0 kcal/mol
same,"ΔS^ǂ, Forward",[1],6.7 ± 1.6 cal/°K·mol and 6.7 cal/°K·mol
same,Ea^Forward,[2],6.0 ± 1.0 kcal/mol
same,"ΔS^ǂ, Forward",[2],6.7 ± 2.0 cal/°K·mol
